Test results taken from patent publication US8563503B2, “Antibiotic, its nucleotide sequence, methods of construction and uses thereof” (Protein Design Lab. Ltd., priority 2011, dated 2013).

Assays:
[1] = tested on: Staphylococcus aureus MRSA BAA-42; assay: MIC against the infecting strain (Table 2); format: cell-based; conditions: Staphylococcus aureus MRSA BAA-42
Procedure: (§1) (3) Culture Solution • MH Broth Culture Solution: 25 g was added into […] distilled water, heat to dissolve, subpackaged, autoclaved at 116° C. for 20 minutes, and MH Solid Culture Medium, 36 g was added into 1000 ml distilled water, autoclaved at 116° C. for 20 minutes, used for drug sensitive test of Gram-positive and negative aerobic bacteria. • Blood culture solution for Enterococcus faecalis, which was prepared by adding defibration rabbit blood into the MH culture solution by 5-10% and cultured at 37° C. in 5% CO2 for 24 hours. 2. Experimental Methods (1) The Measurement of Minimum Inhibitory Concentration (MIC) • The Minimum Inhibitory Concentration (MIC) of PMC-SA1 was measured by Agar Doubling Dilution Method. The bacterium was inoculated on the surface of agar plate containing different concentration of drugs by multipoint inoculate instrument (Deneley A400). The bacterial content per point was 10^5 CFU/ml. After incubated at 37° C. for 18-24 hours, the result can be observed. The least concentration of drugs in plate culture solution without bacterium growing was Minimum Inhibitory Concentration (MIC) of the drug to the said bacteria. 3. Results

[2] = tested on: Staphylococcus aureus ATCC 29213; assay: MIC against the infecting strain (Table 2); format: cell-based; conditions: ATCC29213
Procedure: as §1

[3] = tested on: Staphylococcus aureus MRSA BAA-42; assay: Protection test in vivo (intravenous injection) of infected mice; parameters: species or system Kungming mice; conditions: mice, infected with 6.5 × 10^5 cfu/ml i.p., drug once intravenous
Procedure: (§2) The drugs used in this embodiment were same with that used in embodiment 4.
(§3) The above drugs were dissolved and diluted by sterilized water, and the injection concentrations of each drug were 10 mg/kg, 5 mg/kg and 2.5 mg/kg.
(§4) After given intraperitoneal injection of fatal dose of above-mentioned bacteria, the mice of each drug experimental group respectively were given once intravenous injection of the drug by 10 mg, 5 mg, 2.5 mg/kg. The results were observed per 24 hours for 7-14 days. The positive result is mice's death.

E. coli 02-1-65 = assay: as above; parameters: species or system Kungming mice; conditions: mice, infected with 3.8 × 10^5 cfu/ml i.p., drug once intravenous
Procedure: as §2, §3, §4

Enterococcus ATCC 700802 = assay: as above; parameters: species or system Kungming mice; conditions: mice, infected with 7.0 × 10^6 cfu/ml i.p., drug once intravenous
Procedure: as §2, §3, §4

[4] = tested on: Staphylococcus aureus ATCC 29213; assay: as above; parameters: species or system Kungming mice; conditions: mice, infected with 4.6 × 10^5 cfu/ml i.p., drug once intravenous
Procedure: as §2, §3, §4

[5] = tested on: Multiple-drug resistance Pseudomonas aeruginosa (clinical separated strain 13280); assay: In vivo protection of mice infected by multiple-drug resistance Pseudomonas aeruginosa; parameters: species or system Kungming mice; conditions: fatal dose i.p.
Description: (1) Drugs • PMC-PA, piperacillin, amikacin, ceftazidime, levofloxacin.
Multiple-drug resistance Pseudomonas aeruginosa (clinical separated strain 13280, isolated by laboratory bacteria room of West China Hospital)
Kungming mice (n=60), half male and half female, weighing 15-20 g were given intraperitoneal injection of multiple-drug resistance Pseudomonas aeruginosa, therein PMC-PA, piperacillin, amikacin, ceftazidime and levofloxacin experimental group were set respectively as 10 mice per group, while the control group was set as 10 mice per group. After given intraperitoneal injection of fatal dose of the bacterium, the mice in drug experimental groups respectively were given an intravenous injection of one kind of above drugs, the results were observed per 24 hours for continuous 10 days. The positive result was mouse's death.

[6] = tested on: methicillin-resistant Staphylococcus aureus ATCC BAA-42; assay: Bacteria growth curve (A595 nm), comparison of the novel antibiotics; format: cell-based; conditions: drug 5 μg/ml, 37° C., A595 nm per hour
Procedure: The following experiment was set for comparing bacteriostasis effects of 6 kinds of the novel antibiotics. The experimental bacteriaum was United States Standard Strain methicillin-resistant Staphylococcus aureus ATCC BAA-42. 5 microliter of bacteria solution (10^6 CFU/ml level bacterium amount) was added into 10 ml culture solution containing 1% peptone, 1% NaCl, 0.5% yeast extract, 0.5% glucose and 0.1% K2HPO4, total of 8 groups were prepared. The first group as control was added 0.3 M NaCl+50 mM boric acid buffer fluid by the same volume as that of antibiosis polypeptide liquid added in any experimental groups, the second group was added penicillin G sodium by 5 μg/ml, PMC-SA1, PMC-SA2, PMC-SA3, PMC-SA4, PMC-SE and PMC-PA were added in the other experimental groups with preservative fluid being 0.3 M NaCl+50 mM boric acid buffer fluid by 5 ug/ml.
The solution of above groups was put into 100 ml conical flask, 200 rpm, grew at 37° C. 100 μl was sampled per hour, and added onto 96-pore ELISA plate and measured bacteria grown cloudiness by spectrophotometer (A595 nm) color comparison. The bacteria growth curve was drawn up to compare the bacteriostasis efficacy of antibiosis polypeptide.

For Cc1nnc(SCC2=C(C(=O)[O-])N3C(=O)[C@@H](NC(=O)Cn4cnnn4)[C@H]3SC2)s1.[Na+] [Cefazolin, Cefazolin Sodium], the MIC [1] was 6 µg/mL, the MIC [2] was 7 µg/mL and the ED50 [3] was 9.04 mg/kg. For the same molecule, the ED50 (E. coli 02-1-65) was >30 mg/kg, the ED50 (Enterococcus ATCC 700802) was >10 mg/kg and the ED50 [4] was 29.11 mg/kg.

With NCC[C@H](O)C(=O)N[C@@H]1C[C@H](N)[C@@H](O[C@H]2O[C@H](CN)[C@@H](O)[C@H](O)[C@H]2O)[C@H](O)[C@H]1O[C@H]1O[C@H](CO)[C@@H](O)[C@H](N)[C@H]1O [amikacin] the “time in which mice were all dead” value ([5]; 5 mg/kg intravenous) was ≤ 4 days.

For CC(C)(O/N=C(\C(=O)N[C@@H]1C(=O)N2C(C(=O)[O-])=C(C[n+]3ccccc3)CS[C@H]12)c1csc(N)n1)C(=O)O [ceftazidime], the “survival rate of mice in 10 days” value ([5]; 50 mg/kg intravenous) was 20%.

C[C@H]1COc2c(N3CCN(C)CC3)c(F)cc3c(=O)c(C(=O)O)cn1c23 [levofloxacin] was tested, and the “survival rate of mice in 10 days” value ([5]; 5 mg/kg intravenous) was 40%.

With CCN1CCN(C(=O)N[C@@H](C(=O)N[C@@H]2C(=O)N3[C@@H]2SC(C)(C)[C@@H]3C(=O)O)c2ccccc2)C(=O)C1=O [piperacillin] the “time in which mice were all dead” value ([5]; 50 mg/kg intravenous) was ≤ 3 days.

B1: PMC-SA4: Staphylococcus aureus pheromone AgrD IV linked to C-terminus of allosteric colicin Ia′; SEQ ID NO. 19; plasmid pBHC-SA4 (protein)
chain: SDPVRITNPAAESLGYDSDGREIMGVDIYLNPPRVDVFKGTPPAWSSFGNKTIWGGNEWVDDSPTRSDIEKRDKEITAYKNTLSAQQKENENKRTEAGKRLSAAIAAREKDENTLKTLRAGNADAADITRQEFRLLQAELREYGFRTEIAGYDALRLHTESRMLFADADSLRISPREARSLIEQAEKRQKDAQNADKKAADMLAEYERRKGILDTRLSELEKNGGAALAVLDAQQARLLGQQTRNDRAISEARNKLSSVTESLNTARNALTRAEQQLTQQKNTPDGKTIVSPEKFPGRSSTNHSIVVSGDPRFAGTIKITTSAVIDNRANLNYLLSHSGLDYKRNILNDRNPVVTEDVEGDKKIYNAEVAEWDKLRQRLLDARNKITSAESAVNSARNNLSARTNEQKHANDALNALLKEKENIRNQLSGINQKIAEEKRKQDELKATKDAINFTTEFLKSVSEKYGAKAEQLAREMAGQAKGKKIRNVEEALKTYEKYRADINKKINAKDRAAIAAALESVKLSDISSNLNRFSRGLGYAGKFTSLADWITEFGKAVRTENWRPLFVKTETIIAGNAATALVALVFSILTGSALGIIGYGLLMAVTGALIDESLVEKANKFWGIYSTCYFIM
modifications: The peptide of PMC-SA4
notes: Staphylococcus aureus pheromone AgrD IV linked to C-terminus of allosteric colicin Ia′; 19; plasmid pBHC-SA4
With B1 the “bacteriostasis effect on growth of methicillin-resistant Staphylococcus aureus (bacteria growth curve)” value (“bacteriostasis effect on growth” below) [6] was “less better”.

B2: PMC-SA3: Staphylococcus aureus pheromone AgrD III linked to C-terminus of allosteric colicin Ia′; SEQ ID NO. 17; plasmid pBHC-SA3 (protein)
chain: SDPVRITNPAAESLGYDSDGREIMGVDIYLNPPRVDVFKGTPPAWSSFGNKTIWGGNEWVDDSPTRSDIEKRDKEITAYKNTLSAQQKENENKRTEAGKRLSAAIAAREKDENTLKTLRAGNADAADITRQEFRLLQAELREYGFRTEIAGYDALRLHTESRMLFADADSLRISPREARSLIEQAEKRQKDAQNADKKAADMLAEYERRKGILDTRLSELEKNGGAALAVLDAQQARLLGQQTRNDRAISEARNKLSSVTESLNTARNALTRAEQQLTQQKNTPDGKTIVSPEKFPGRSSTNHSIVVSGDPRFAGTIKITTSAVIDNRANLNYLLSHSGLDYKRNILNDRNPVVTEDVEGDKKIYNAEVAEWDKLRQRLLDARNKITSAESAVNSARNNLSARTNEQKHANDALNALLKEKENIRNQLSGINQKIAEEKRKQDELKATKDAINFTTEFLKSVSEKYGAKAEQLAREMAGQAKGKKIRNVEEALKTYEKYRADINKKINAKDRAAIAAALESVKLSDISSNLNRFSRGLGYAGKFTSLADWITEFGKAVRTENWRPLFVKTETIIAGNAATALVALVFSILTGSALGIIGYGLLMAVTGALIDESLVEKANKFWGIYINCDFLL
modifications: The peptide of PMC-SA3
notes: Staphylococcus aureus pheromone AgrD III linked to C-terminus of allosteric colicin Ia′; 17; plasmid pBHC-SA3
B2 was tested, and the “bacteriostasis effect on growth” value [6] was “still less better”.

B3: PMC-SA2: Staphylococcus aureus pheromone AgrD II linked to C-terminus of allosteric colicin Ia′; SEQ ID NO. 15; plasmid pBHC-SA2 (protein)
chain: SDPVRITNPAAESLGYDSDGREIMAVDIYLNPPRVDVFKGTPPAWSSFGNKTIWGGNEWVDDSPTRSDIEKRDKEITAYKNTLSAQQKENENKRTEAGKRLSAAIAAREKDENTLKTLRAGNADAADITRQEFRLLQAELREYGFRTEIAGYDALRLHTESRMLFADADSLRISPREARSLIEQAEKRQKDAQNADKKAADMLAEYERRKGILDTRLSELEKNGGAALAVLDAQQARLLGQQTRNDRAISEARNKLSSVTESLNTARNALTRAEQQLTQQKNTPDGKTIVSPEKFPGRSSTNHSIVVSGDPRFAGTIKITTSAVIDNRANLNYLLSHSGLDYKRNILNDRNPVVTEDVEGDKKIYNAEVAEWDKLRQRLLDARNKITSAESAVNSARNNLSARTNEQKHANDALNALLKEKENIRNQLSGINQKIAEEKRKQDELKATKDAINFTTEFLKSVSEKYGAKAEQLAREMAGQAKGKKIRNVEEALKTYEKYRADINKKINAKDRAAIAAALESVKLSDISSNLNRFSRGLGYAGKFTSLADWITEFGKAVRTENWRPLFVKTETIIAGNAATALVALVFSILTGSALGIIGYGLLMAVTGALIDESLVEKANKFWGIGVNACSSLF
modifications: The peptide of PMC-SA2
notes: Staphylococcus aureus pheromone AgrD II linked to C-terminus of allosteric colicin Ia′; 15; plasmid pBHC-SA2
For B3, the “bacteriostasis effect on growth” value [6] was “still less better”.
